Data reported in PMC6835510, “Magnificamide, a β-Defensin-Like Peptide from the Mucus of the Sea Anemone Heteractis magnifica, Is a Strong Inhibitor of Mammalian α-Amylases” (Marine Drugs, 2019).
Where two headings read alike, the source gives them in different places. Bridge positions count the residues as written; N and C are the ends. Ends that are not written are not given here.

Columns and labels:
[1] = system: human saliva α-amylases (HSA); conditions: cited from earlier work
Text: (§1) It covers all age groups of the population, and recently it has spread epidemiologically among children and adolescents. The blood glucose levels of diabetic patients reaches abnormally high values, which leads to serious damage to many body systems, especially nerves and blood vessels, causing heart and kidney diseases, blindness, and even the amputation of limbs. The preferred way to maintain ...

[2] = target: T1, porcine pancreatic α-amylase (PPA) (Sus scrofa, UniProt P00690); conditions: cited from earlier work
T1 construct: purchased Sigma Aldrich A4268
T1 sequence (P00690 16-511): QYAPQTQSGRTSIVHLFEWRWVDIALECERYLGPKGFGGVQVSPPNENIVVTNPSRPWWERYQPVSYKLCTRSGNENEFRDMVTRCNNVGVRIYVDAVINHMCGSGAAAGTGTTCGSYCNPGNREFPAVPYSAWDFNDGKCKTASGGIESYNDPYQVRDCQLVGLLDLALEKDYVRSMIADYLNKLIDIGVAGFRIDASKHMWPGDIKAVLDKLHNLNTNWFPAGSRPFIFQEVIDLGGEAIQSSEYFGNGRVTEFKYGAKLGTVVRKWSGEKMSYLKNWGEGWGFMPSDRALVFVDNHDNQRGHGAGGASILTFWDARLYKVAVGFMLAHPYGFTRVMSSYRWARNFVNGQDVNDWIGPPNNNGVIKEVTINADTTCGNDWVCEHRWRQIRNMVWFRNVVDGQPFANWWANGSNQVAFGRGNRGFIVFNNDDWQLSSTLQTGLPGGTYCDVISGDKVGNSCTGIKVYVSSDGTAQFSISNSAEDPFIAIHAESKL
Text: as §1, with “[…] Recently, as a result of the proteomic analysis of the sea anemone H. magni” for “The preferred way to maintain”

[3] = target: human pancreatic α-amylase (HPA); conditions: Table 5, ref [11]; cited from earlier work
Text: Recently, as a result of the proteomic analysis of the sea anemone H. magni ...

[4] = target: human salivary α-amylase (HSA) (Homo sapiens, UniProt P0DUB6); assay: Determination of Ki against human saliva α-amylase (Morrison); format: biochemical; conditions: pH 7, Table 5 summary, own value; 37 °C, pH 7.0, CNPG3, Morrison fit; read-out: Ki, M (HSA) (converted)
Method: For a quantitative assessment of tight-binding inhibitor potency, Morrison’s method was applied. This method uses the Morrison quadratic equation (Equation (1)) for fitting inhibitor-response data and determining Ki app as a nonlinear regression parameter. (1) υ/υo=1−([E]+[I]+Kiapp)−([E]+[I]+Kiapp)^2−4[E][I]/2[E]o
Kinetic assays were carried out at 37 °C in 50 mM sodium phosphate and 100 mM sodium chloride (pH 7.0). 2-Chloro-4-nitrophenyl-α-maltotrioside (CNPG3) (Sigma Aldrich, St. Louis, MO, USA) was used as the substrate and the optical absorption of the 2-chloro-4-nitrophenol was measured at 405 nm. Reactions were run with final [CNPG3] = 1 mM ([S]/KM = 1.41, KM = 0.71 mM), nominal [E] = 20 nM for PPA, [CNPG3] = 3.3 mM ([S]/KM = 0.97, KM = 3.4 mM), and nominal [E] = 100 nM for HSA to provide sufficient analytical signal. Inhibitor dilution schemes were optimized considering recommendations in [34].
The enzyme was pre-incubated with the inhibitor for 10 minutes before the addition of substrate which launched the reaction. Reactions were monitored on an xMark microplate spectrophotometer (BioRad, USA) in the kinetic mode for 30 min. The initial linear steady state region provided initial rate values for each inhibitor concentration (υ), along with uninhibited rate values (υo). Measurements were run in triplicate. […]

[5] = system: fungi, Gram-positive or Gram-negative bacteria; assay: Antimicrobial screening, overall; format: cell-based; conditions: 1, 5, 10, 20 µM; listed as magnificamide
Method: The antimicrobial activity of r-magnificamide was tested against Gram-positive (Staphylococcus aureus ATCC 21027 and Bacillus subtilis ATCC6633), Gram-negative bacteria (Escherichia coli VKPM B-7935 and Pseudomonas aeruginosa ATCC 27853), and the fungus Candida albicans KMM 455 by the agar dilution method. Microbial strains were taken from the American Type Culture Collection (ATCC), Russian National Collection of Industrial Microorganisms (VKPM), and Collection of Marine Microorganisms (KMM) (Pacific Institute of Bioorganic Chemistry FEB RAS). To obtain a microbial lawn, 0.1 mL of a cell suspension (0.5 × 10^8 cells/mL) was uniformly distributed on agar surface in Petri dishes (15 g/L tryptic soy broth, 2 g/L bacto yeast extract, 1 g/L glucose, and 20 g/L agar for bacteria; for fungi 10 g/L of glucose was added). Wells with a diameter of 6 mm were punched into the agar and filled with 100 µL of the peptide solution at concentrations 1, 5, 10, and 20 µM. The plates were then incubated for 18 h at 37 °C for bacteria, and at 30 °C for the fungus. Minimum inhibitory concentration was determined by measuring the clear zone of inhibition around each well. All assays were performed independently three times.

[6] = system: 18 subtypes of voltage-gated potassium and voltage-gated sodium channels; assay: Electrophysiological screening, overall; format: cell-based; conditions: 10 µM; Xenopus laevis oocytes; listed as magnificamide
Text: For the expression of Nav channels (mammalian rNav1.2, rNav1.4, hNav1.5, mNav1.6 and hNav1.8 channels; the insect channel BgNav1 from Blattella germanica; and the auxiliary subunits rβ1, hβ1, and TipE) and Kv channels (mammalian rKv1.1, rKv1.2, hKv1.3, rKv1.4, rKv1.5, rKv1.6, rKv2.1, hKv3.1, rKv4.2, hKv10.1, and hERG; and Drosophila Shaker’s IR) in Xenopus laevis oocytes; the linearized plasmids were transcribed using the T7 or SP6 mMESSAGE-mMACHINE transcription kit (Ambion, Carlsbad, CA, USA). The harvesting of stage V–VI oocytes from anesthetized female Xenopus laevis frog was previously described. Oocytes were injected with 50 nL of cRNA at a concentration of 1 ng/nL using a microinjector (Drummond Scientific, Broomall, PA, USA). The oocytes were incubated in a solution containing 96-mM NaCl, 2-mM KCl, 1.8-mM CaCl2, 2-mM MgCl2, and 5-mM HEPES (pH 7.4), supplemented with 50 mg/L gentamycin sulfate.
Two-electrode voltage-clamp recordings were performed at room temperature (18–22 °C) using a Geneclamp 500 amplifier (Molecular Devices, Downingtown, PA, USA) controlled by a pClamp data acquisition system (Axon Instruments, Union City, CA, USA). Whole cell currents from oocytes were recorded 1–4 days after injection. The bath solution’s composition was 96-mM NaCl, 2-mM KCl, 1.8-mM CaCl2, 2-mM MgCl2, and 5-mM HEPES (pH 7.4). Toxins were applied directly to the bath. Resistances of both electrodes were kept between 0.8 and 1.5 MΩ. The elicited currents were sampled at 20 kHz (Nav) or 2 kHz (Kv), filtered at 2 kHz (Nav) or 0.5 kHz (Kv) using a four-pole low-pass Bessel filter. Leak subtraction was performed using a -P/4 protocol. […] For the electrophysiological analysis, a number of protocols were applied from a holding potential of −90 mV with a start-to-start interval of 0.2 Hz. Kv1.1–Kv1.6 and Shaker currents were evoked by 250-ms depolarizations to 0 mV followed by a 250 ms pulse to −50 mV from a holding potential of −90 mV. […] All data were analyzed using pClamp Clampfit 10.0 (Molecular Devices, Downingtown, PA, USA) and Origin 7.5 software (Originlab, Northampton, MA, USA).

[7] = target: porcine pancreatic α-amylase (porcine) (UniProt P00690); assay: enzyme inhibition kinetics (Morrison tight-binding fit); 37 °C, 50 mM sodium phosphate, 100 mM sodium chloride, pH 7.0; substrate CNPG3 (1 mM with nominal 20 nM PPA; 3.3 mM with nominal 100 nM HSA); enzyme pre-incubated with inhibitor 10 min; Ki from Ki app assuming a competitive mode of inhibition; triplicate
[8] = due to β-sandwich fold; ref [17]; cited from earlier work
Text: The medicines based on proteins and peptides are poorly represented in the pharmacological market, but attract the interest of specialists due to their high selectivity and effectiveness, combined with relative safety and good tolerability. A large number of proteinaceous α-amylase inhibitors have been isolated from plants, but they are highly specific and interacted with plant α-amylases to control the breakdown of stored starch or with insect α-amylases for defense. Several very effective proteinaceous inhibitors of mammalian, but not plant or microbial α-amylases were found in bacter ...

Chain of human salivary α-amylase (HSA) (P0DUB6 16-511): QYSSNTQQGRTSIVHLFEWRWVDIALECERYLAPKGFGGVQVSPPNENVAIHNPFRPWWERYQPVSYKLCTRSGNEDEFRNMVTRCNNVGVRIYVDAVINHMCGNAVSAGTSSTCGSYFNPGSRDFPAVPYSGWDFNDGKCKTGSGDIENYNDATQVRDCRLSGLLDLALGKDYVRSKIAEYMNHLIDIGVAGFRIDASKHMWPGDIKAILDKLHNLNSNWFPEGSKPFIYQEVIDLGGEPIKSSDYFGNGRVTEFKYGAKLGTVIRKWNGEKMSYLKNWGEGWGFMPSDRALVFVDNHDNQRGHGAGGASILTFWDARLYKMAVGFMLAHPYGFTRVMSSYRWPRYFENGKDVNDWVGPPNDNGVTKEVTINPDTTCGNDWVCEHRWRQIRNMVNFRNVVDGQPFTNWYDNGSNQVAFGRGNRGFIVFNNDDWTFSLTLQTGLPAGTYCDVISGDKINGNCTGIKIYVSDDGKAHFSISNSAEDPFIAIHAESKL

C[C@H]1O[C@H](O[C@H]2[C@H](O)[C@@H](O)[C@@H](O[C@H]3[C@H](O)[C@@H](O)C(O)O[C@@H]3CO)O[C@@H]2CO)[C@H](O)[C@@H](O)[C@@H]1N[C@H]1C=C(CO)[C@@H](O)[C@H](O)[C@H]1O (some centres unmarked) [Acarbose]
Ki ([1]; Table 5, ref [9], read-out: Ki, M (HSA) (converted)): 1300 nM | Ki ([1]; ref [9], read-out: Ki against HSA): 1260 nM

Helianthamide: α-amylase inhibitor of the β-defensins family from Stichodactyla helianthus (44 aa, 4716 Da); PDB ID 4XON (ESGNSCYIYHGVSGICKASCAEDEKAMAGMGVCEGHLCCYKTPW; three disulfide bridges; the text prints the PDB ID as 4XON, read as 4X0N (complex with porcine pancreatic alpha-amylase)) [reference compound]
Ki ([2]; Table 5, ref [18]): 0.1 nM

Montbretin A
Ki [3]: 8.1 nM

SEGTSCYIYHGVYGICKAKCAEDMKAMAGMGVCEGDLCCYKTPW (disulfide 6-38, 16-33, 20-39) [Magnificamide]
Ki [4]: 7.7 nM | Antimicrobial activity, overall [5]: No antimicrobial activity against Gram-positive, Gram-negative bacteria, or fungi was observed | Ion channel modulating activity, overall [6]: found no activity

recombinant magnificamide (peptide)
Ki [7]: 0.17 nM

B1: Tendamistat (HOE-467A): α-amylase inhibitor from Streptomyces tendae 4158, Mr 7958 Da (protein, UniProt P01092 31-104, looked up)
Alpha-amylase inhibitor …: DTTVSEPAPSCVTLYQSWRYSQADNGCAQTVTVKVVYEDDTEGLCYAVAPGQITTVGDGYIGSHGHARYLARCL
Ki ([2]; Table 5, ref [13]): 0.009 nM | immunogenicity [8]: high immunogenicity

B2: Parvulustat (Z-2685): α-amylase inhibitor from Streptomyces parvullus FH-1641, Mr 8129 Da (protein)
chain: ATGSPVAECVEYFQSWRYTDVHNGCADAVSVTVEYTHGQWAPCRVIEPGGWATFAGYGTDGNYVTGLHTCDPATPSGV
modifications: two disulfide bridges; expected 78 aa, 8129 Da
Ki ([2]; Table 5, ref [16]): 0.028 nM
